Measured values reported in patent publication US11596633B2, “SHP2 inhibitor compositions and methods for treating cancer” (Revolution Medicines, Inc., priority 2017, dated 2023).

How the values were obtained:
[1] = tested on: p-ERK1/2 in H1792 cells; test: p-ERK AlphaLisa SureFire; type: cell-based; settings: H1792 cells (KRAS G12C)
Method: (§1) Cells were plated at ˜20×10^3 cells per well and following overnight incubation were washed with serum-free media. Cells were then incubated for one hour with increasing concentrations of the test article in serum-free media containing 0.2% BSA prior to termination of the assay and measurement of pERK levels in cellular lysates by AlphaLisa SureFire Ultra kit conducted according to the manufacturer's instructions.

[2] = tested on: p-ERK1/2 in H358 cells; test: p-ERK AlphaLisa SureFire; type: cell-based, human; settings: H358 cells (KRAS G12C)
Method: as §1

[3] = tested on: p-ERK1/2 in Calu-1 cells; test: p-ERK AlphaLisa SureFire; type: cell-based, human; settings: Calu-1 cells (KRAS G12C)
Method: as §1

[4] = tested on: MIA-Pa-Ca-2 xenograft; test: MIA-Pa-Ca-2 xenograft, Compound C with Abemaciclib (Example 8); type: in vivo, mice; settings: Compound C 30 mg/kg PO, Abemaciclib 50 mg/kg
Excerpt: Similar methods were used to evaluate efficacy of test articles in the pancreatic MiaPaca-2 KRas^G12C xenograft model. Balb/c nude mice (6-8 weeks old) were implanted with […] MiaPaca-2 tumor cells in 50% Matrigel subcutaneously in the flank. […] Administration of test articles and study design are as described above for H358 xenograft model.
(§2) The effects on tumor cell growth in vivo of another SHP2 inhibitor (Compound C) as a monotherapy or as a combination therapy with various Ras pathway inhibitors were evaluated in the NSCLC H358 KRas^G12C and MIA-Pa-Ca-2 xenograft models as described above in Example 1, except that the test article and vehicle formulation was (2% HPMC E-50, 0.5% Tween 80 in 50 mM Sodium Citrate Buffer, pH 4.0)+/− the inhibitor compound(s). […] Test compounds or vehicle control were administered by oral gavage daily. The study endpoint was defined as a mean tumor volume of 2000 mm^3 in the control group or 22 days post-dosing, whichever came first. Mean tumor volume data are reported for all animals that remained on study.

[5] = tested on: H358 KRas G12C xenograft; type: in vivo; settings: daily PO, Compound C 10 mg/kg, Trametinib 1 mg/kg, Cobimetinib 2.5 mg/kg, Ulixertinib 100 mg/kg
Method: The positive control, paclitaxel (30 mg/kg iv) in 5% ethanol, 5% cremophor EL, in 5% dextrose in deionized water was administered once every five days. Trametinib (1 mg/kg PO in 0.5% Methylcellulose+0.5% Tween 80) was administered by oral gavage daily. The study endpoint was defined as a mean tumor volume of 2000 mm^3 in the control group or 22 days, whichever came first. Mean tumor volume data are reported for all animals that remained on study.
as §2

[6] = tested on: RAS-GTP in NCI-H1838 cells; test: RAS-GTP pulldown (Raf-RBD); type: cell-based; settings: NCI-H1838 (NF1 LOF), MEK inhibition by trametinib
Method: (§3) To determine the effects of small molecules on levels of activated RAS-GTPase, cell lines of interest were cultured under standard 2D culture conditions. Cells were seeded and following overnight incubation incubated at 37° C. with vehicle (DMSO) or test article(s). After an appropriate incubation period, cells were washed and cell lysis buffer added to prepare a cell lysate. The levels of Ras-GTP in the lysates were determined using affinity purification of a Raf-RBD (Ras binding domain of Raf)/GTP-Ras complex. In one approach, the Pierce Active Ras Pulldown and Detection Kit was used. Briefly, clarified lysates (500 μg total protein, quantified by BCA) were mixed with glutathione resin, which had been preincubated with GST-Raf-RBD. The mixture was vortexed and incubated at 4° C. for 1 hour with gentle rocking. The resin was washed three times with lysis buffer and bound Ras-GTP eluted by addition of 2× reducing sample buffer. Eluted proteins were separated by SDS-PAGE using a 4-15% Tris-glycine gel (BioRad). Proteins were transferred to a nitrocellulose membrane for western blot using an anti-Ras antibody (Thermofisher, 1:200) and a Licor IRDye-800 anti-mouse secondary antibody (1:20,000). The Licor Odyssey CLx was used for visualization.
as §3, with “resin” for “resin,”

[7] = tested on: NCI-H358 xenograft; test: NCI-H358 xenograft, alone and with trametinib (Example 7); settings: trametinib 1 mg/kg
Method: The effects of a SHP2 inhibitor on tumor cell growth in vivo were evaluated in the NSCLC H358 xenograft model using female athymic nude mice (6-8 weeks old). Mice were implanted with H358 tumor cells in 50% Matrigel (1×10^7 cells/animal) subcutaneously in the flank. Once tumors reached an average size of 200 mm^3 mice were randomized to treatment groups and administration of test article or vehicle (50 mM acetate buffer, pH 4.6 containing 10% captisol, unless otherwise indicated) initiated. […] Body weight and tumor volume (using calipers) was measured every other day until study endpoints.

[8] = tested on: phosphorylated RTKs in MDA-MB-231 cells; test: Phospho-RTK array; type: cell-based; settings: MDA-MB-231 (KRAS G13D), 24 hours; selumetinib 5 μM, Compound A 1 and 5 μM
Method: To determine the effects of test article(s) on levels of phosphorylated RTKs, MDA-MB231 cells were seeded in 6-well plates and incubated overnight in full growth medium. Cells were treated for 24 hours with selumetinib (5 μM) or Compound A (1 and 5 μM) or left untreated (DMSO control). Lysates were generated using the lysis buffer provided with the kit (Phospho-RTK Array; R&D systems) with inclusion of a protease inhibitor cocktail. To control for protein concentration, total protein levels were quantified using BCA reagent kit. The levels of phospho-RTK were determined according to the manufacturer's instructions.

SMILES: C=CC(=O)N1CC(N2CCN(C(=O)CNc3cc(C4(C)CC4)c(Cl)cc3O)CC2)C1 [ARS-853, reference compound]
- inhibition of p-ERK1/2 levels [1]: sensitive
- inhibition of p-ERK1/2 levels [2]: sensitive
- inhibition of p-ERK1/2 levels [3]: sensitive

SMILES: CCN1CCN(Cc2ccc(Nc3ncc(F)c(-c4cc(F)c5nc(C)n(C(C)C)c5c4)n3)nc2)CC1 [Abemaciclib]
- tumor growth as a single agent compared to vehicle control [4]: significant tumor growth inhibition

SMILES: O=C(c1ccc(F)c(F)c1Nc1ccc(I)cc1F)N1CC(O)([C@@H]2CCCCN2)C1 [Cobimetinib]
- tumor growth as a single agent compared to vehicle control [5]: significant tumor growth inhibition

SMILES: CC(=O)Nc1cccc(-n2c(=O)n(C3CC3)c(=O)c3c(Nc4ccc(I)cc4F)n(C)c(=O)c(C)c32)c1 [Trametinib, reference compound]
- feedback-driven RAS-GTP accumulation [6]: caused feedback-driven RAS-GTP accumulation
- tumor growth as a single agent compared to vehicle control [5]: significant tumor growth inhibition
- tumor growth as compared to the vehicle control ([7]; single agent, Compound B 10 and 30 mg/kg): significant tumor growth inhibition
- tumor growth inhibition, TGI [7]: 79%

SMILES: CC(C)Nc1cc(-c2c[nH]c(C(=O)N[C@H](CO)c3cccc(Cl)c3)c2)c(Cl)cn1 [Ulixertinib]
- tumor growth as a single agent compared to vehicle control [5]: significant tumor growth inhibition

SMILES: Cn1cnc2c(F)c(Nc3ccc(Br)cc3Cl)c(C(=O)NOCCO)cc21 [selumetinib, Selumetinib, reference compound]
- feedback-driven p-RTK hyperactivation [8]: caused feedback-driven p-RTK hyperactivation
